Laboratory results reported in US5798375A, “Treatment of arteriosclerosis and xanthoma” (Sankyo Company, Limited, priority 1995, dated 1998).

How the values were obtained:
WHHL rabbits [1] = test: Example 2: percentage area covered by lesions, aortic arch and whole aorta; type: in vivo, Male WHHL rabbits; design: Lesion Area, Aortic Arch, percentage against the control group / Lesion Area, Total Aorta, percentage against the control group: concentration or dose not given beside the values; settings: oral, eight months
Experimental: Each test compound was administered for eight months to the rabbits in the form of an aqueous suspension (0.5% carboxymethylcellulose added). In the control group, a 0.5% carboxymethylcellulose solution only was administered.
The values actually measured are represented by the mean value plus or minus standard error. The numbers in parentheses represent the percentage lesion area against the control group.
*p<0.05, **p<0.01; significant difference against the control group under the [Mann-Whitney's U-Test A significant difference (p<0.05) was observed between Groups B and F, between Groups C and E and between Groups D and F at the aortic arch, and between Groups C and E over the total aorta.

WHHL rabbits [2] = test: Example 1: incidence of xanthoma in the digital joints of WHHL rabbits; type: in vivo
Experimental: WHHL rabbits [2-3 months of age, the Watanabe heritable hyperlipidemic rabbit described in Biochimica et Biophysica Acta, 960, 294-302 (1988)] were randomly assigned to a control group (7 animals, group A), a group receiving pravastatin alone (5 animals, Group B), a group receiving troglitazone alone (7 animals, Group C), and a group receiving a combination of both active substances (6 animals, Group D). Pravastatin was administered orally by gavage at a dose of 50 mg/kg/day once-daily and troglitazone was given in the diet, containing 100 mg/kg of the substance for 32 weeks. The ingested amount was limited to a daily 120 g per rabbit. Blood was withdrawn from the animal immediately before starting the study and 4, 8, 12, 16, 20, 24, 28 and 32 weeks after starting the study and the total cholesterol levels (mg/dl) were determined for each blood sample. The levels are reported as a percentage (%) of the levels measured immediately before starting the study. The animals were sacrificed and necropsied at week 32 to examine (a) the percent lesion area (%) in the total, thoracic or abdominal portion of the aorta; (b) the stenosis (%) of the coronary arteries and (c) the incidence (%) of xanthoma in the digital joints.
The values actually measured are represented as an average value±standard error in those Tables.

## CC[C@H](C)C(=O)O[C@H]1C[C@H](O)C=C2C=C[C@H](C)[C@H](CC[C@@H](O)C[C@@H](O)CC(=O)O)[C@H]21 [Pravastatin, sodium 1,2,6,7,8,8a-hexahydro-6,8-tetrahydroxy-2-methyl-1-naphthaleneheptanoate]
WHHL rabbits [1]; number in parentheses
  Lesion Area, Aortic Arch, percentage against the control group: 72%
  Lesion Area, Total Aorta, percentage against the control group: 70%
WHHL rabbits [1]; pravastatin 50, pioglitazone 20, Compound A 10 mg/kg, mean ± standard error, *p<0.05, **p<0.01 vs control
  Lesion Area, Total Aorta: 35 ± 6%
WHHL rabbits [1]; pravastatin 50, pioglitazone 20, Compound A 10 mg/kg, mean ± standard error, control 82 ± 5, *p<0.05, **p<0.01 vs control
  Lesion Area, Aortic Arch: 59 ± 11%
WHHL rabbits [2]; week 32, control 100 (14/14)
  Incidence of xanthoma, Foreleg: 80%
  Incidence of xanthoma, Hind leg: 80%
WHHL rabbits [2]; week 32, control 100 (28/28)
  Incidence of xanthoma, Total: 80%
